Here are results for 35 molecules from patent publication US10392391B2 (Vertex Pharmaceuticals Incorporated, priority 2012, dated 2019).

pKi: −log10 of the molar value.

The target in one experiment is ATR kinase (full-length ATR) (Homo sapiens (Human), UniProt Q13535). In words: ATR inhibition assay (radioactive-phosphate incorporation). Type of experiment: biochemical.
Sequence of ATR kinase (full-length ATR) (Q13535 whole entry): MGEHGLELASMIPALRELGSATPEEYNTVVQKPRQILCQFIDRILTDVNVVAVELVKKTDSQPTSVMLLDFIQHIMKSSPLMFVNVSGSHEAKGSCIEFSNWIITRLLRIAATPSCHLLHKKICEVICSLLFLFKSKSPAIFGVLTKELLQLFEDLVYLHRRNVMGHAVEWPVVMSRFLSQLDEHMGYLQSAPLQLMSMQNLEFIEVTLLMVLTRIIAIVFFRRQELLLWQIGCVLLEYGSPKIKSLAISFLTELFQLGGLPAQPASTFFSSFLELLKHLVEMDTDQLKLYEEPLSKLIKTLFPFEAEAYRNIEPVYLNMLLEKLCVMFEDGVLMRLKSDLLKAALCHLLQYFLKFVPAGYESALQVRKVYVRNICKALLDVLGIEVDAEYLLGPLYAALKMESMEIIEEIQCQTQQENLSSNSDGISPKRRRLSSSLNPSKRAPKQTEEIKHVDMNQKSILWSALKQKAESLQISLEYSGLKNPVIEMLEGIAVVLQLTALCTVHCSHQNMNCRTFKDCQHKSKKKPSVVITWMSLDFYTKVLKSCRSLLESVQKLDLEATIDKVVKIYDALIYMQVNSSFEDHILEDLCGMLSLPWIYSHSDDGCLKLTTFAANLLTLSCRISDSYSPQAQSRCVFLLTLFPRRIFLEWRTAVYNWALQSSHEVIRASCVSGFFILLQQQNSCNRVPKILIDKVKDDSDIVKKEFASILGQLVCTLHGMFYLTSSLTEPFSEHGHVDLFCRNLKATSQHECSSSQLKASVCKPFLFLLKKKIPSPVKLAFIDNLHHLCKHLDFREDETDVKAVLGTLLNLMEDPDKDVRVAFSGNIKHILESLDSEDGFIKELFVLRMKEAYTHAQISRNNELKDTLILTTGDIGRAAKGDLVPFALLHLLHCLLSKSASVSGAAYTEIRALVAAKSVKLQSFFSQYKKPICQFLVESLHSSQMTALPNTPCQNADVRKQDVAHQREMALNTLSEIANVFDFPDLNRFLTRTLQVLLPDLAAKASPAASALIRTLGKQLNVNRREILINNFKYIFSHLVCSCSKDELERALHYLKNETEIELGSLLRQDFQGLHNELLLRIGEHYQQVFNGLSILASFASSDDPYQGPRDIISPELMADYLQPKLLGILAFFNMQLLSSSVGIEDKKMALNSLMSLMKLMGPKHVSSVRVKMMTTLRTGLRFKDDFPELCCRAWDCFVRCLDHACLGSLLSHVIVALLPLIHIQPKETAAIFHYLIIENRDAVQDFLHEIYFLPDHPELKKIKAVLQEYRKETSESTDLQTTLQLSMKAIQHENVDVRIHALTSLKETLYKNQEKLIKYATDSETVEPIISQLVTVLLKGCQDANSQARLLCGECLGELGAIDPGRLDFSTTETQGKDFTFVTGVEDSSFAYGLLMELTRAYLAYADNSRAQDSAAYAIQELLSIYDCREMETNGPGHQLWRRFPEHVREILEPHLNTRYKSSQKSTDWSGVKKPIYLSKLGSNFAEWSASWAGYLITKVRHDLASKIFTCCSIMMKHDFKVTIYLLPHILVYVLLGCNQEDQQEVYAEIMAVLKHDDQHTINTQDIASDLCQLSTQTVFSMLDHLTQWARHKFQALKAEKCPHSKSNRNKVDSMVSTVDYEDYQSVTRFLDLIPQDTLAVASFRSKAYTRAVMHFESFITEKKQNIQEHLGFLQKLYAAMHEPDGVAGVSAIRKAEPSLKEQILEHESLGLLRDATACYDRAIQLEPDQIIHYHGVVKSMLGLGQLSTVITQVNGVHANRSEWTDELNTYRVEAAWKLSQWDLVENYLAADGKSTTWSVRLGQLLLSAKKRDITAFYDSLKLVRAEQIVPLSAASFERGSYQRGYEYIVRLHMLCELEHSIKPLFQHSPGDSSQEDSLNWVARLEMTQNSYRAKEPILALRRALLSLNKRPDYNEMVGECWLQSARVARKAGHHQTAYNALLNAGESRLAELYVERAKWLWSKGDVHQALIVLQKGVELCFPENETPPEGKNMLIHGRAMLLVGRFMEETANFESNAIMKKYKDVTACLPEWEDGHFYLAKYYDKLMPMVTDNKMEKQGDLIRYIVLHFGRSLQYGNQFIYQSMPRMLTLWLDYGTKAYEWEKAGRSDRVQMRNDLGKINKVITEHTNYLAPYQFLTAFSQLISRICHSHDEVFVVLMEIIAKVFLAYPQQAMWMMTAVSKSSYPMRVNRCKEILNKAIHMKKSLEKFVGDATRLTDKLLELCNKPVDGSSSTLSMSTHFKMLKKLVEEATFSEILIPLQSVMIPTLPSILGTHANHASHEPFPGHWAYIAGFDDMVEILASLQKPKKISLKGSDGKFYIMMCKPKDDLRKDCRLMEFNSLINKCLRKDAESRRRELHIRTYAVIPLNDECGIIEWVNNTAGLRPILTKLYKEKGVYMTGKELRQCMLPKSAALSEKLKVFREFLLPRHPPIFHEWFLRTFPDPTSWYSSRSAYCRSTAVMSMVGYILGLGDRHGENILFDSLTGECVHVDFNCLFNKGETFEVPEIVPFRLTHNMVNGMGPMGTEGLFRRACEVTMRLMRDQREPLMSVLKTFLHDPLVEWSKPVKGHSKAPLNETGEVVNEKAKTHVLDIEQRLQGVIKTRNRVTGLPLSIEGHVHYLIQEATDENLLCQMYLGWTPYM
Settings: not given
In short, it runs like this: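 Ki(app) was fitted by non-linear regression to background-corrected initial rates. Full-length ATR (5 nM) phosphorylated 800 μM peptide using 10 μM [γ-33P]ATP at 25° C in Tris/HCl pH 7.5 buffer with MgCl2, DTT and 7% DMSO. After 10-minute compound pre-incubation and 24-hour reaction, phosphocellulose filters were scintillation counted.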
With `CN1CC2CN(C(=O)C3CCN(c4c(F)cncc4NC(=O)c4c(N)nn5cc(F)cnc45)CC3)CC2C1` (centres unmarked) [I-G-18, 2-amino-6-fluoro-N-(5-fluoro-4-(4-(5-methyloctahydropyrrolo[3,4-c]pyrrole-2-carbonyl)piperidin-1-yl)pyridin-3-yl)pyrazolo[1,5-a]pyrimidine-3-carboxamide], the negative-log Ki (pKi) – broadly, −log10 of the Ki, conventionally taken in molar units – is 6.00 to 8.00.

Turning to `CC(C)(C)N1CCN(c2ccncc2NC(=O)c2c(N)nn3cc(Cl)cnc23)CC1` [I-N-34, 2-amino-N-(4-(4-(tert-butyl)piperazin-1-yl)pyridin-3-yl)-6-chloropyrazolo[1,5-a]pyrimidine-3-carboxamide], the pKi is 5.30 to 6.00.

As to `CN(C)CCCOc1ccncc1NC(=O)c1c(N)nn2cc(Cl)cnc12` [I-O-52, 2-amino-6-chloro-N-(4-(3-(dimethylamino)propoxy)pyridin-3-yl)pyrazolo[1,5-a]pyrimidine-3-carboxamide], the pKi is 5.30 to 6.00.

As to `CN1CCC(c2c(F)cncc2NC(=O)c2c(N)nn3cc(F)cnc23)CC1` [I-C-14, 2-amino-6-fluoro-N-(5-fluoro-4-(1-methylpiperidin-4-yl)pyridin-3-yl)pyrazolo[1,5-a]pyrimidine-3-carboxamide], the pKi is 5.30 to 6.00.

The experiment is the same for the next values; noted with them: Ki(app), 5 nM full-length ATR, 10 μM ATP, 25° C.
Consider `NCC1CCN(c2ccncc2NC(=O)c2c(N)nn3cc(Cl)cnc23)CC1` [I-N-91, 2-amino-N-(4-(4-(aminomethyl)piperidin-1-yl)pyridin-3-yl)-6-chloropyrazolo[1,5-a]pyrimidine-3-carboxamide], for which the pKi was above 8.00.

On to `Nc1nn2cc(Cl)cnc2c1C(=O)Nc1cnccc1N1CCC(N2CC[S+]([O-])CC2)CC1` [I-N-100, 2-amino-6-chloro-N-(4-(4-(1-oxidothiomorpholino)piperidin-1-yl)pyridin-3-yl)pyrazolo[1,5-a]pyrimidine-3-carboxamide], for which the pKi is 6.00 to 8.00.

On to `CN(C)CCOCCOc1ccncc1NC(=O)c1c(N)nn2cc(Cl)cnc12` [I-O-47, 2-amino-6-chloro-N-(4-(2-(2-(dimethylamino)ethoxy)ethoxy)pyridin-3-yl)pyrazolo[1,5-a]pyrimidine-3-carboxamide], for which the pKi was 6.00 to 8.00.

For `CC1(N2CCN(c3ccncc3NC(=O)c3c(N)nn4cc(Cl)cnc34)CC2)COC1` [I-N-25, 2-amino-6-chloro-N-(4-(4-(3-methyloxetan-3-yl)piperazin-1-yl)pyridin-3-yl)pyrazolo[1,5-a]pyrimidine-3-carboxamide], the pKi was 6.00 to 8.00.

As for `Nc1nn2cc(F)cnc2c1C(=O)Nc1cncc(F)c1N1CCN2CCOC[C@H]2C1` [I-N-135, (R)-2-amino-6-fluoro-N-(5-fluoro-4-(hexahydropyrazino[2,1-c][1,4]oxazin-8(1H)-yl)pyridin-3-yl)pyrazolo[1,5-a]pyrimidine-3-carboxamide], the pKi was 6.00 to 8.00.

On to `Cc1cncn1-c1ccncc1NC(=O)c1c(N)nn2cc(F)cnc12` [I-N-283, 2-amino-6-fluoro-N-(4-(5-methyl-1H-imidazol-1-yl)pyridin-3-yl)pyrazolo[1,5-a]pyrimidine-3-carboxamide], for which the pKi is 6.00 to 8.00.

As for `Cc1nccnc1-c1ccncc1NC(=O)c1c(N)nn2cc(F)cnc12` [I-C-62, 2-amino-6-fluoro-N-(4-(3-methylpyrazin-2-yl)pyridin-3-yl)pyrazolo[1,5-a]pyrimidine-3-carboxamide], the pKi is 6.00 to 8.00.

For `N#CCc1cnc2c(C(=O)Nc3cnccc3OC3CCOC3)c(N)nn2c1` (racemic) [I-O-37, (R,S)-2-amino-6-(cyanomethyl)-N-(4-((tetrahydrofuran-3-yl)oxy)pyridin-3-yl)pyrazolo[1,5-a]pyrimidine-3-carboxamide], the pKi is above 8.00.

On to `Nc1nn2cc(F)cnc2c1C(=O)Nc1cnccc1-c1cncnc1` [I-C-28, 2-amino-6-fluoro-N-(4-(pyrimidin-5-yl)pyridin-3-yl)pyrazolo[1,5-a]pyrimidine-3-carboxamide], for which the pKi is 6.00 to 8.00.

On to `Nc1nn2cc(F)cnc2c1C(=O)Nc1cnccc1N1CCCC2(COC2)C1` [I-N-253, N-(4-(2-oxa-6-azaspiro[3.5]nonan-6-yl)pyridin-3-yl)-2-amino-6-fluoropyrazolo[1,5-a]pyrimidine-3-carboxamide], for which the pKi was 6.00 to 8.00.

As for `COc1ccncc1NC(=O)c1c(N)nn2cc(F)cnc12` [I-O-4, 2-amino-6-fluoro-N-(4-methoxypyridin-3-yl)pyrazolo[1,5-a]pyrimidine-3-carboxamide], the pKi was 6.00 to 8.00.

With `CC(C)Oc1ccncc1NC(=O)c1c(N)nn2cc(CC#N)cnc12` [I-O-35, 2-amino-6-(cyanomethyl)-N-(4-isopropoxypyridin-3-yl)pyrazolo[1,5-a]pyrimidine-3-carboxamide], the pKi was above 8.00.

With `Cc1cncc(NC(=O)c2c(N)nn3cc(F)cnc23)c1-n1nccc1C` [I-N-237], the pKi was 6.00 to 8.00.

Regarding `CN1CCN(c2ccncc2NC(=O)c2c(N)nn3cc(Cl)cnc23)CC1` [I-N-59, 2-amino-6-chloro-N-(4-(4-methylpiperazin-1-yl)pyridin-3-yl)pyrazolo[1,5-a]pyrimidine-3-carboxamide], the pKi was 6.00 to 8.00.

For the molecule `Nc1nn2cc(F)cnc2c1C(=O)Nc1cnccc1N1CCN([C@H]2CCOC2)CC1` [I-N-12, (S)-2-amino-6-fluoro-N-(4-(4-(tetrahydrofuran-3-yl)piperazin-1-yl)pyridin-3-yl)pyrazolo[1,5-a]pyrimidine-3-carboxamide], the pKi is 6.00 to 8.00.

Take `Cc1nc(C)n(-c2ccncc2NC(=O)c2c(N)nn3cc(F)cnc23)n1` [I-N-218, 2-amino-N-(4-(3,5-dimethyl-1H-1,2,4-triazol-1-yl)pyridin-3-yl)-6-fluoropyrazolo[1,5-a]pyrimidine-3-carboxamide]: the pKi is 6.00 to 8.00.

For `CN1CCN(C2CCN(c3ccncc3NC(=O)c3c(N)nn4cc(Cl)cnc34)CC2)CC1` [I-N-97, 2-amino-6-chloro-N-(4-(4-(4-methylpiperazin-1-yl)piperidin-1-yl)pyridin-3-yl)pyrazolo[1,5-a]pyrimidine-3-carboxamide], the pKi is 6.00 to 8.00.

For `Nc1nn2cc(F)cnc2c1C(=O)Nc1cncc(F)c1N1CCC(C(=O)N2CCN(C3CC3)CC2)CC1` [I-G-13, 2-amino-N-(4-(4-(4-cyclopropylpiperazine-1-carbonyl)piperidin-1-yl)-5-fluoropyridin-3-yl)-6-fluoropyrazolo[1,5-a]pyrimidine-3-carboxamide], the pKi was 6.00 to 8.00.

With `Nc1nn2cc(Cl)cnc2c1C(=O)Nc1cnccc1OCC(F)(F)F` [I-O-59, 2-amino-6-chloro-N-(4-(2,2,2-trifluoroethoxy)pyridin-3-yl)pyrazolo[1,5-a]pyrimidine-3-carboxamide], the pKi is 6.00 to 8.00.

Consider `CNc1cc(N2CCN(C)CC2)c(NC(=O)c2c(N)nn3cc(F)cnc23)cn1` [I-N-129, 2-amino-6-fluoro-N-(6-(methylamino)-4-(4-methylpiperazin-1-yl)pyridin-3-yl)pyrazolo[1,5-a]pyrimidine-3-carboxamide], for which the pKi is 6.00 to 8.00.

As for `Nc1nn2cc(F)cnc2c1C(=O)Nc1cncc(F)c1N1CCC(N2CCOCC2)CC1` [I-N-189, 2-amino-6-fluoro-N-(5-fluoro-4-(4-morpholinopiperidin-1-yl)pyridin-3-yl)pyrazolo[1,5-a]pyrimidine-3-carboxamide], the pKi was 6.00 to 8.00.

Take `Nc1nn2cc(F)cnc2c1C(=O)Nc1cnccc1O[C@H]1CN2CCC1CC2` [I-O-5, (R)-2-amino-6-fluoro-N-(4-(quinuclidin-3-yloxy)pyridin-3-yl)pyrazolo[1,5-a]pyrimidine-3-carboxamide]: the pKi is 6.00 to 8.00.

For the molecule `Nc1nn2cc(F)cnc2c1C(=O)Nc1cncc(F)c1N1CCN2C(=O)CCCC2C1` (centres unmarked) [I-N-277, 2-amino-6-fluoro-N-(5-fluoro-4-(6-oxohexahydro-1H-pyrido[1,2-a]pyrazin-2(6H)-yl)pyridin-3-yl)pyrazolo[1,5-a]pyrimidine-3-carboxamide], the pKi is 6.00 to 8.00.

Consider `Nc1nn2cc(F)cnc2c1C(=O)Nc1cncc(F)c1N1CCC(C(=O)N2CC3CNCC3C2)CC1` (centres unmarked) [I-G-51, 2-amino-6-fluoro-N-(5-fluoro-4-(4-(octahydropyrrolo[3,4-c]pyrrole-2-carbonyl)piperidin-1-yl)pyridin-3-yl)pyrazolo[1,5-a]pyrimidine-3-carboxamide], for which the pKi was 6.00 to 8.00.

For `CN(C)C(=O)C1CCN(c2ccncc2NC(=O)c2c(N)nn3cc(F)cnc23)CC1` [I-G-2, 2-amino-N-(4-(4-(dimethylcarbamoyl)piperidin-1-yl)pyridin-3-yl)-6-fluoropyrazolo[1,5-a]pyrimidine-3-carboxamide], the pKi is 6.00 to 8.00.

`Nc1nn2cc(F)cnc2c1C(=O)Nc1cnccc1OC1CCOC1` (racemic) [I-O-15, (R,S)-2-amino-6-fluoro-N-(4-((tetrahydrofuran-3-yl)oxy)pyridin-3-yl)pyrazolo[1,5-a]pyrimidine-3-carboxamide]: the pKi is 6.00 to 8.00.

Regarding `CC(C)N1CCN(c2ccncc2NC(=O)c2c(N)nn3cc(Cl)cnc23)CC1` [I-N-39, 2-amino-6-chloro-N-(4-(4-isopropylpiperazin-1-yl)pyridin-3-yl)pyrazolo[1,5-a]pyrimidine-3-carboxamide], the pKi is 6.00 to 8.00.

With `Nc1nn2cc(F)cnc2c1C(=O)Nc1cnccc1-c1ccccc1` [I-C-5, 2-amino-6-fluoro-N-(4-phenylpyridin-3-yl)pyrazolo[1,5-a]pyrimidine-3-carboxamide], the pKi was 6.00 to 8.00.

In the case of `COc1ccncc1NC(=O)c1c(N)nn2cc(CC#N)cnc12` [I-O-26, 2-amino-6-(cyanomethyl)-N-(4-methoxypyridin-3-yl)pyrazolo[1,5-a]pyrimidine-3-carboxamide], the pKi was above 8.00.

As for `Nc1nn2cc(F)cnc2c1C(=O)Nc1cnccc1O[C@H]1CCCN(C2COC2)C1` [I-O-9, (S)-2-amino-6-fluoro-N-(4-((1-(oxetan-3-yl)piperidin-3-yl)oxy)pyridin-3-yl)pyrazolo[1,5-a]pyrimidine-3-carboxamide], the negative-log Ki (pKi) was 6.00 to 8.00.

With `N#CCc1cnc2c(C(=O)Nc3cnccc3-c3ccccc3)c(N)nn2c1` [I-C-6, 2-amino-6-(cyanomethyl)-N-(4-phenylpyridin-3-yl)pyrazolo[1,5-a]pyrimidine-3-carboxamide], the pKi is 6.00 to 8.00.
